Measurements published in ChEMBL document CHEMBL1201862, “PubChem BioAssay data set” (2004).
Calls of active or inactive are those of the source.

Experiments:
[1] = THP-1 cell cytotoxicity, dose response, cytotoxicity control for non-replicating M. tuberculosis project (AID 489025); format: functional
[2] = Vero E6 cell cytotoxicity, dose response, cytotoxicity control for non-replicating M. tuberculosis project, secondary assay (AID 492998); format: functional, VeroE6; conditions: Vero C1008
cells [3] = format: functional
[4] = target: Serine/threonine-protein phosphatase PP1-alpha catalytic subunit (Homo sapiens, UniProt P62136); assay: inhibition of protein phosphatase 1 activity – biochemical, fluorescence, dose response (AID 2403);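 note: phosphatase turnover of OMFP into fluorescent 3-O-methylfluorescein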
Sequence of Serine/threonine-protein phosphatase PP1-alpha catalytic subunit (P62136 whole entry): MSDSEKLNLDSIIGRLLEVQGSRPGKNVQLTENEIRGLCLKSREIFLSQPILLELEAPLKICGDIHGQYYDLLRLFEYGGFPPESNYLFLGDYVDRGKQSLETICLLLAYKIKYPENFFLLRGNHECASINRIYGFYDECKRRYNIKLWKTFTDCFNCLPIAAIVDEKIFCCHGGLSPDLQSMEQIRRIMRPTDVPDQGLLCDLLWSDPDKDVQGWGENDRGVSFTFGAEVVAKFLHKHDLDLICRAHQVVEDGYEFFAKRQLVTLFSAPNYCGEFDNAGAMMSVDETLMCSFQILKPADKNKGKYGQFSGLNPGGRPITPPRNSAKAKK

[5] = target: T1, Serine/threonine-protein phosphatase (Homo sapiens, UniProt Q9BPW0); assay: Counterscreen for inhibitors of PP1: fluorescence-based biochemical high throughput dose response assay to identify inhibitors of Protein Phosphatase 5 (PP5). [Related pubchem assays: 2034 (Summary (PP5 inhibitors)), 1987 (PP5 inhibitors in singlate), 2235 (PP1 inhibitors in singlate)]
T1 sequence (Q9BPW0 whole entry): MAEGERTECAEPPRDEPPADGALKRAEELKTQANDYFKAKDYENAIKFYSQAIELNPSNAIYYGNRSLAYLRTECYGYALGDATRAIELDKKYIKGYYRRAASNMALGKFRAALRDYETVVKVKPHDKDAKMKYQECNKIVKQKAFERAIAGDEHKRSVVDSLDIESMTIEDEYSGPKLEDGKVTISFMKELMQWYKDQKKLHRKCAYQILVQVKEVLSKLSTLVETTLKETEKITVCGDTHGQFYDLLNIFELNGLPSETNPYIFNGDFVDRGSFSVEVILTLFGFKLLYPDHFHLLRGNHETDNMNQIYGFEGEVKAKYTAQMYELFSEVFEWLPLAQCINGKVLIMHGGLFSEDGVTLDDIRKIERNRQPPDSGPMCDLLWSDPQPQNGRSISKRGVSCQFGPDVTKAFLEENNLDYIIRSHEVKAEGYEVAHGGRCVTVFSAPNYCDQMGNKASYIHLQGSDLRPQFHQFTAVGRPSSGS

Coagulation factor XII = target: T2, Coagulation factor XII (Homo sapiens, UniProt P00748); format: functional;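 note: activated factor XIIa alpha cleaving a fluorogenic AMC peptide substrate; inhibitor potency from loss of enzyme activity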
T2 sequence (P00748 whole entry): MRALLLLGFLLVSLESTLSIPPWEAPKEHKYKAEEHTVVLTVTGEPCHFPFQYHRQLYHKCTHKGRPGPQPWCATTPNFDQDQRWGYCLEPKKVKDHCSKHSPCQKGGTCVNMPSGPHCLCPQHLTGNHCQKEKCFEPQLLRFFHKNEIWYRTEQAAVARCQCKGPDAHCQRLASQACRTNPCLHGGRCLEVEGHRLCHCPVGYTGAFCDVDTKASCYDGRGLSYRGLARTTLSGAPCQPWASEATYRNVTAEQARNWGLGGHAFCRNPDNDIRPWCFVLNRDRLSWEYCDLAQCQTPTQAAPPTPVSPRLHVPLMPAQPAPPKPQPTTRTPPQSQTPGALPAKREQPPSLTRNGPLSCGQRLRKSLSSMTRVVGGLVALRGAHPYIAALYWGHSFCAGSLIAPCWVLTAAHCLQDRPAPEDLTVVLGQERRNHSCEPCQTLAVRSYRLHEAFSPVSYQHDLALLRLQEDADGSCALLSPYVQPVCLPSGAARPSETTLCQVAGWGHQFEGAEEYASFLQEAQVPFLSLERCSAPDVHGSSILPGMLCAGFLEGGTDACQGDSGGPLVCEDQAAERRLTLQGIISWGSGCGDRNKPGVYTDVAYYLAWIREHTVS

Troponin, cardiac muscle = Troponin, cardiac muscle (Homo sapiens, UniProt P19429+P45379+P63316); assay: Fluorescence-based biochemical high throughput dose response assay for activators of the calcium sensitivity of cardiac Regulated Thin Filaments (RTF). [Related pubchem assays (depositor defined):AID493008, AID493018, AID504382, AID504383]; format: protein-complex assay
[6] = target: T3, Polyadenylate-binding protein 1 (Homo sapiens, UniProt P11940); assay: MLLE binding blockers, Cy5 peptide tracer – biochemical, fluorescence polarization, Cy5-PAM2 peptide, secondary, miRNA deadenylation inhibitor project, dose response (AID 602260); format: functional; conditions: read-out: IC50_Mean
T3 sequence (P11940 whole entry, the tested form may be a part): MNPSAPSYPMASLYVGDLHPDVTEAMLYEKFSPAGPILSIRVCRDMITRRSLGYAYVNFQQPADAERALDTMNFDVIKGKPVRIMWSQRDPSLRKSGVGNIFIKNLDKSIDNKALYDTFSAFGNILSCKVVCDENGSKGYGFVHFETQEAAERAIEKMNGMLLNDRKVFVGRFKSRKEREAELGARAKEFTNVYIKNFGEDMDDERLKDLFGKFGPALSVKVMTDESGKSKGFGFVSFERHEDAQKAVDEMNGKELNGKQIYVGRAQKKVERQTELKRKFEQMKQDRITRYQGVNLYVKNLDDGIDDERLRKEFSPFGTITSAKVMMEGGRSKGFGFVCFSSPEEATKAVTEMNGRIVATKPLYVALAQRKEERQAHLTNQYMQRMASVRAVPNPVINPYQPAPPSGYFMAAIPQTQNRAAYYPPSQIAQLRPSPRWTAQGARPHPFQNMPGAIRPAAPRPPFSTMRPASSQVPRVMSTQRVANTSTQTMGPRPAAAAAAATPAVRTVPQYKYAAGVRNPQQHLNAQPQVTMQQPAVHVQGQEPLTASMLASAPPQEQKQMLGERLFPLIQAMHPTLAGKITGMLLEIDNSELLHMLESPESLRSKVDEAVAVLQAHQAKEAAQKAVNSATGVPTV

[7] = target: T3, Polyadenylate-binding protein 1; assay: MLLE domain peptide-binding blockers, IC50 – biochemical, fluorescence polarization, FITC-PAM2 peptide, dose response (AID 602259); format: functional; conditions: read-out: IC50_Mean
Protein skinhead-1 = target: T4, Protein skinhead-1 (Caenorhabditis elegans, UniProt P34707); format: functional
T4 sequence (P34707 whole entry): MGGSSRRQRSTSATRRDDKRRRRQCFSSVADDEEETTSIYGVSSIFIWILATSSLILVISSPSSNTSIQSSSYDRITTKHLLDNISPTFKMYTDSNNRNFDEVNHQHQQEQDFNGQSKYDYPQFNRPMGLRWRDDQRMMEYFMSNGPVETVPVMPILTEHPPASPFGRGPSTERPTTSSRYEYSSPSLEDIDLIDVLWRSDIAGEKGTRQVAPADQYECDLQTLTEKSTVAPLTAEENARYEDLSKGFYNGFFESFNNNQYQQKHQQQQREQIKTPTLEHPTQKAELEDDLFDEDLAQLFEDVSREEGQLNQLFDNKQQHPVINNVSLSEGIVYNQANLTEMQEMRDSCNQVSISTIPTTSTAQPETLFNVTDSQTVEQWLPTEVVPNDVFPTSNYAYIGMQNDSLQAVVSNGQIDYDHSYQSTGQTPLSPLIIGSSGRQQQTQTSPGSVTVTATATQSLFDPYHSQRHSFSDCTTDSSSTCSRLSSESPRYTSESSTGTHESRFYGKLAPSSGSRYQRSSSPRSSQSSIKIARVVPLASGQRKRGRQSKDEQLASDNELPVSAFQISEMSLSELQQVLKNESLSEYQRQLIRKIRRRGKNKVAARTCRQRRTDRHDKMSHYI

[8] = target: G-protein coupled receptor 55 (Homo sapiens, UniProt Q9Y2T6); assay: inhibition of LPI-stimulated GPR55 beta-arrestin translocation – imaging, U2OS, beta-arrestin-GFP, LPI agonist, primary screen (AID 2013); format: functional;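 note: antagonist potency measured as reduced agonist-driven arrestin aggregation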
Sequence of G-protein coupled receptor 55 (Q9Y2T6 whole entry): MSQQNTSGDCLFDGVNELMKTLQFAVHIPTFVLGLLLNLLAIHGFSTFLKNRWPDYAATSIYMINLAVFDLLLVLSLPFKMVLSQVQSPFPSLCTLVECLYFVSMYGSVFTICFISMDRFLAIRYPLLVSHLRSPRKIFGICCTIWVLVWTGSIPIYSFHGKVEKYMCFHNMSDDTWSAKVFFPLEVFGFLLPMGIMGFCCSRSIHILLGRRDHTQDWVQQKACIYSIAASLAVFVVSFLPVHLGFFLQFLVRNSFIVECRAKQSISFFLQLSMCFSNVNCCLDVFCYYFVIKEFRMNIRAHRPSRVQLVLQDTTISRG

[9] = target: Voltage-dependent T-type calcium channel subunit alpha-1H (Homo sapiens, UniProt O95180); format: functional;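 note: channel activity triggered by adding a high calcium stimulation buffer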
Sequence of Voltage-dependent T-type calcium channel subunit alpha-1H (O95180 whole entry): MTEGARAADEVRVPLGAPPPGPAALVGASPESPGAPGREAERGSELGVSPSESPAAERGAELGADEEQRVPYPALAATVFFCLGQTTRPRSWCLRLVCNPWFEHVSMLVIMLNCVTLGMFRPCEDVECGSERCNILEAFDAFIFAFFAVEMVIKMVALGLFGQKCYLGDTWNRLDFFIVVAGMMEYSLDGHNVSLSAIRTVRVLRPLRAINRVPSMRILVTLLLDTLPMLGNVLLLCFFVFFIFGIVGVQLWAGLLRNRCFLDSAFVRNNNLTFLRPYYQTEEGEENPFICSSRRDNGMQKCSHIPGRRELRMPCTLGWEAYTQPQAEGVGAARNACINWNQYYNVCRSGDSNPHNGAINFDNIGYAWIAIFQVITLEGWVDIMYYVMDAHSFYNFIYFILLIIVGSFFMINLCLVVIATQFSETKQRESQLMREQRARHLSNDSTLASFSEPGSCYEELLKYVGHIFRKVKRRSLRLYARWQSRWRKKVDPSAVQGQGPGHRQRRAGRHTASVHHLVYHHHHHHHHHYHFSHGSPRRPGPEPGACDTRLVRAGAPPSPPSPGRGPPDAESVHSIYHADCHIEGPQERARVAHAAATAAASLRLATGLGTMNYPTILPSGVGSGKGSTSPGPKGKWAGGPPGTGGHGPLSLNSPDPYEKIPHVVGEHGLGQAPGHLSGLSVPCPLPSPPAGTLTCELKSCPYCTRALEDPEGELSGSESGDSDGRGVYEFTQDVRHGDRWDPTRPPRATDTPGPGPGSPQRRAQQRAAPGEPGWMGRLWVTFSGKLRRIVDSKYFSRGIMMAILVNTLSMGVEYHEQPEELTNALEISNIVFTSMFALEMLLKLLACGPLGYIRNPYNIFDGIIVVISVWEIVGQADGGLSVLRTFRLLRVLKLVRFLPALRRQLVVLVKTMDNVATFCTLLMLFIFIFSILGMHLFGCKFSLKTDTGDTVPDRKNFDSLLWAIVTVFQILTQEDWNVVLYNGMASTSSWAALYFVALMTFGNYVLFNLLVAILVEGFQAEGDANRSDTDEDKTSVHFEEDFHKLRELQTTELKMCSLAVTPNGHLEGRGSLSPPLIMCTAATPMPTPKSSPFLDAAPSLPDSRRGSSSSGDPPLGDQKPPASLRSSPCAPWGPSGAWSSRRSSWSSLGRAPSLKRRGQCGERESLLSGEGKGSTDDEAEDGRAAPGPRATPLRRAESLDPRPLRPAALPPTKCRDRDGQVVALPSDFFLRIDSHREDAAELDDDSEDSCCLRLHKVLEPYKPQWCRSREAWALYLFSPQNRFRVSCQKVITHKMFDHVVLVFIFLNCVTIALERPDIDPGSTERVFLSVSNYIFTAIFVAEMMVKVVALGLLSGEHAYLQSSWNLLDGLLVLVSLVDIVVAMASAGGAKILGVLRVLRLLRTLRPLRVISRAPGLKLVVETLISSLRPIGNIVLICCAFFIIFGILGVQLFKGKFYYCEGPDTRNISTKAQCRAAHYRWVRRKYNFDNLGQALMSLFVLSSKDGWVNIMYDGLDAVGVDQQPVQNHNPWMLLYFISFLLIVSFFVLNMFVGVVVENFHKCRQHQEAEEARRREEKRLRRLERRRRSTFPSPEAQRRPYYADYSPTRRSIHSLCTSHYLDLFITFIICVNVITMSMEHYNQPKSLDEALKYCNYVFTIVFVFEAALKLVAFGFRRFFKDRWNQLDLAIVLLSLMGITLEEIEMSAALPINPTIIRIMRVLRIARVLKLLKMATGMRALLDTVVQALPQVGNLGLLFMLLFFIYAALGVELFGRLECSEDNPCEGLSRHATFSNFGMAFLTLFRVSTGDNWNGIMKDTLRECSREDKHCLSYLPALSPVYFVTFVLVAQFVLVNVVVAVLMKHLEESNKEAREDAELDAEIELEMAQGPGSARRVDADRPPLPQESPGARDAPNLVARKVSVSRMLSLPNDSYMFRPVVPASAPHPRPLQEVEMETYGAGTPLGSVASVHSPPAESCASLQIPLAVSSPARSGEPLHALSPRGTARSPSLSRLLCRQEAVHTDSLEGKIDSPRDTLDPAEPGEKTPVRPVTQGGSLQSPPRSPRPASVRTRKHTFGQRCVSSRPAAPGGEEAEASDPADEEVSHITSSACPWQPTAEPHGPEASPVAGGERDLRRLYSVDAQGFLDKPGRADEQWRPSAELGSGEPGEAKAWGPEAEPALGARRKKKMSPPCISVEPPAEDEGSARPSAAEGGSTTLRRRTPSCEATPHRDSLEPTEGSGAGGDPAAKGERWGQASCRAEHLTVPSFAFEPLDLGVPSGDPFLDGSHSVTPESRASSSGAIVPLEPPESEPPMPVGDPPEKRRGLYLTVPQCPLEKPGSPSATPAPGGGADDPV

[10] = Luminescence Cell-Based Dose Retest to Confirm Inhibitors of Cancer Stem Cells. [Related pubchem assays (depositor defined):AID2717, AID2721]; format: functional; conditions: Homo sapiens
[11] = A Cell Based Secondary Assay To Explore Cytotoxicity of Compounds that Sensitize Mycobacterium Tuberculosis to Beta-Lactam Antibiotics.; format: functional
Cytochrome P450 2D6 = Cytochrome P450 2D6 (Homo sapiens, UniProt P10635);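 note: CYP2D6 member of a cytochrome P450 panel assay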
Sequence of Cytochrome P450 2D6 (P10635 whole entry): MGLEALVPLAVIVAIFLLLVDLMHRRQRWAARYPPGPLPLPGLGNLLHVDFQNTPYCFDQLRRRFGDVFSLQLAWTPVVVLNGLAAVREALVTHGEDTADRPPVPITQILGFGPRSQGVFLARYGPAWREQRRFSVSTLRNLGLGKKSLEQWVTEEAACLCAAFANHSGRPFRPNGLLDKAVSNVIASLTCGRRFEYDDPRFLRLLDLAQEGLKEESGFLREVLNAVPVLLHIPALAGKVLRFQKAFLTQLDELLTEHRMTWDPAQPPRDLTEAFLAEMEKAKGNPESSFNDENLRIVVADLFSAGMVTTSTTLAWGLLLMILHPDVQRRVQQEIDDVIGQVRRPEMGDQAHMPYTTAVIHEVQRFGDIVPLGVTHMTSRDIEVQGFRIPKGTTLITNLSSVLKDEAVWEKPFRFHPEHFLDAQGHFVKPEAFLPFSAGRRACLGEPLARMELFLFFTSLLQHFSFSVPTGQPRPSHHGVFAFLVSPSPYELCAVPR

[12] = system: Streptococcus sp. 'group A'; assay: Streptococcus pyogenes SK(-)GAS viability under kanamycin – luminescence, BacTiterGlo, confirmation, counter-screen for streptokinase expression inhibitor project, dose response (AID 1900); format: functional, organism-based
Streptokinase A = target: T5, Streptokinase A (Streptococcus pyogenes serotype M1, UniProt P10520); assay: viability-normalized secreted streptokinase activity reduction – plasminogen activation absorbance, OD405, dose response (AID 1914); format: functional, Streptococcus pyogenes M1 GAS;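 note: secreted streptokinase activity via plasminogen activation per viability signal from cell pellet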
T5 sequence (P10520 whole entry): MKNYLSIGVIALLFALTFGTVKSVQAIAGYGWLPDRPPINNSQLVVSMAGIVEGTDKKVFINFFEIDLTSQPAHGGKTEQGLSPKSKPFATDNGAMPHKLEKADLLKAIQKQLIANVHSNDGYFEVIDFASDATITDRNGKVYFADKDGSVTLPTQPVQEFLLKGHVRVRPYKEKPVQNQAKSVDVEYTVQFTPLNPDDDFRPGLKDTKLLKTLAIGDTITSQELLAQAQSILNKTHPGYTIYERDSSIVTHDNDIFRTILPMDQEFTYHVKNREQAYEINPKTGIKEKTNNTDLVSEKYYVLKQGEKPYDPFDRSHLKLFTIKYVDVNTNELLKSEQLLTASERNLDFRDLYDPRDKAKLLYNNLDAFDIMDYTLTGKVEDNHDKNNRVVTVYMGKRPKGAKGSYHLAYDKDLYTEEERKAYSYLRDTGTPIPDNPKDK

Streptococcus = assay: GAS UMAA2166 growth inhibition – luminescence, BacTiterGlo, counter-screen for streptokinase expression inhibitor project, dose response (AID 1915); format: functional, organism-based;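 note: potency for reduction of bacterial viability or growth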
[13] = Trypanosoma cruzi growth suppression in host cells – NIH3T3 host cells, beta-gal luminescence, confirmation (AID 2044); format: functional, cell-based;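 note: intracellular parasites grown in NIH/3T3 mouse fibroblasts as host cells; luminescent beta-galactosidase reporter signal from transgenic T. cruzi replicating inside host cells; inhibitors lower the luminescence signal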
[14] = NIH3T3 cell viability loss – ATP luminescence, mouse fibroblasts, counter-screen, dose response (AID 2010); format: functional, cell-based;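 note: cells exposed to compound for about 90 hours before reading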
cells [15] = format: functional, cell-based
[16] = target: T6, Trace amine-associated receptor 1 (Homo sapiens, UniProt Q96RJ0); assay: Fluorescence-based cell-based high throughput dose response assay to identify agonists of the human trace amine associated receptor 1 (TAAR1).; format: functional
T6 sequence (Q96RJ0 whole entry): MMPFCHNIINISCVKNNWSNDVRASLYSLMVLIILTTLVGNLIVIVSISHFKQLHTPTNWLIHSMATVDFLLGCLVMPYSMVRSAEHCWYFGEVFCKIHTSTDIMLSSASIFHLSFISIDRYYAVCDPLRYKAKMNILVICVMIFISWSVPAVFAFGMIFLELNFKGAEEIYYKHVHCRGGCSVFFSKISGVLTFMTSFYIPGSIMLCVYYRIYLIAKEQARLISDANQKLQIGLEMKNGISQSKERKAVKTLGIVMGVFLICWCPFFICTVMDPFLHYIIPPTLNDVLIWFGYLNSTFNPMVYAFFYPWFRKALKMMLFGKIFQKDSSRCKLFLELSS

[17] = target: T6, Trace amine-associated receptor 1; assay: Counterscreen for agonists of the human trace amine associated receptor 1 (hTAAR1): Fluorescence-based cell-based high throughput dose response assay to identify hTAAR1 agonist that also desensitize TAAR1 receptor response.; format: functional
cells [18] = format: functional, cell-based; remark: listed apart in the source
[19] = target: Heat shock cognate 71 kDa protein (Homo sapiens, UniProt P11142); assay: In Vitro Hsc70 Dose Response Fluorescence Polarization Assay. [Related pubchem assays: 1072 ]
[20] = target: Heat shock 70 kDa protein 1A (Homo sapiens, UniProt P0DMV8); assay: inhibition of Hsp70 binding activity – biochemical, fluorescence polarization, SAR follow-up (AID 1072)
Sequence of Heat shock 70 kDa protein 1A (P0DMV8 whole entry): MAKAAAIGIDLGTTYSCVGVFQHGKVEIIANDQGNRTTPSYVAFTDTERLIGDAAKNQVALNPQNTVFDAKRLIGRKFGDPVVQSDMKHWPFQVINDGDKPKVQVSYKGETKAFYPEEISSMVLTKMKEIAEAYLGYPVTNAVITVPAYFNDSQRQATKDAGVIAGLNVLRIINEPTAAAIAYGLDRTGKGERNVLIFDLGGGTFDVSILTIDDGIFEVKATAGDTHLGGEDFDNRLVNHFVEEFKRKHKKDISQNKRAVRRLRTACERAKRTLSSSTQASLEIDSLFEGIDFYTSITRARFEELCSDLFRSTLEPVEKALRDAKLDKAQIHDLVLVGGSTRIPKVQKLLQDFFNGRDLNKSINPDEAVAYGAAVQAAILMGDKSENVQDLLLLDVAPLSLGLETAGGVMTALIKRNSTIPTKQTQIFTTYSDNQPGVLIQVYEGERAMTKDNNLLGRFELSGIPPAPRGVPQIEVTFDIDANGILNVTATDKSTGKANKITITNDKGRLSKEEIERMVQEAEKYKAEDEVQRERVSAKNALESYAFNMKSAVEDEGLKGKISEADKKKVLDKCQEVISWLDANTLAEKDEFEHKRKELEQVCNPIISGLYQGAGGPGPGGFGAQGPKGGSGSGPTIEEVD

## COc1cccc(-c2nnc(NC(=O)c3cccc(F)c3)o2)c1
[1]
  CC50: 13 µM (active)
[2]
  CC50: 9 µM (active)
Cells [3]
  IC50: 3.03 µM (active)

## CC1CC(NC(=O)C2C3CCC(O3)C2C(=O)O)CC(C)(C)C1 (stereo unspecified)
[4]
  IC50: 2.85 µM (active)
[5]
  IC50: 2.78 µM (active)
Coagulation factor XII
  IC50: > 50 µM (inactive)

## COC(=O)C1=C(C)NC(=O)/C1=C\N(C)C
Troponin, cardiac muscle
  EC50: > 71.5 µM (inactive)
[6]
  IC50: > 66 µM (inactive)
[7]
  IC50: > 66 µM (inactive)
Protein skinhead-1
  IC50: > 100 µM (inactive)

## N#C/C(=C\c1ccccc1[N+](=O)[O-])C(=O)NCc1ccccc1
[8]
  IC50: 3.09 µM (active)
[6]
  IC50: > 66 µM (inactive)
[7]
  IC50: > 66 µM (inactive)

## CCC(c1nnnn1Cc1ccco1)N1CCN(c2cc(Cl)ccc2C)CC1 (stereo unspecified)
[9]
  EC50: 4.19 µM (active)
[10]
  AC50: 3.44 µM (active)

## COc1ccc(C(=O)/C=C/c2cn(CC(O)CN3CCN(C)CC3)c3ccccc23)cc1OC (stereo unspecified)
Troponin, cardiac muscle
  EC50: 12.3 µM (inactive)

## Cn1nccc1NC(=O)Nc1cccc(Cl)c1Cl
Troponin, cardiac muscle
  EC50: > 71.4 µM (inactive)

## COc1ccc(CN(CCC#N)C(=S)NC(=O)c2ccccc2)cc1
[11]
  CC50: 39 µM (active)
Cytochrome P450 2D6
  AC50: 25.1 µM (inconclusive)

## COc1ccccc1Sc1nc(-c2ccccn2)ncc1OC
[12]
  EC50: 27.1 µM (active)
[4]
  IC50: 7.52 µM (active)
Streptokinase A
  EC50: > 150 µM (not active)
[5]
  IC50: 66.8 µM (not active)
Streptococcus
  EC50: > 150 µM (not active)

## O=C(Nc1ccccc1-c1nnc(SCc2ccc(Cl)cc2)o1)c1ccccc1
[13]
  EC50: 2.22 µM (active)
[14]
  EC50: > 60 µM (not active)
[9]
  EC50: 6.46 µM (active)

## CCn1cc(C(=O)O)c(=O)c2cc(F)c(N/N=C/c3ccccc3)cc21
[11]
  CC50: 34.1 µM (active)
Cells [15]
  IC50: > 29.9 µM (inactive)
[16]
  EC50: 19.7 µM (inactive)
[17]
  IC50: 1.68 µM (active)
Cells [18]
  EC50: > 29.9 µM (inactive)

## CC1C2C=CC1C(c1c3ccc(=O)c(O)c-3oc3c(O)c(O)ccc13)C2C(=O)O (stereo unspecified)
[19]
  IC50: 5.58 µM (active)
[20]
  IC50: 0.634 µM (active)

## O=C1Nc2ccccc2N2CCCC12 (stereo unspecified)
[4]
  IC50: > 67 µM (not active)
[5]
  IC50: > 2.48 µM (active)
